Calls of active or inactive are those of the source.
Tests used:
[1] = biological target: T1, G-protein coupled receptor 55 (Homo sapiens, UniProt Q9Y2T6); assay: inhibition of LPI-stimulated GPR55 beta-arrestin translocation – imaging, U2OS, beta-arrestin-GFP, LPI agonist, primary screen (AID 2013); format: functional;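 also: antagonist potency measured as reduced agonist-driven arrestin aggregation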
[2] = biological target: Peroxisome proliferator-activated receptor gamma/Nuclear receptor coactivator 1 (Homo sapiens, UniProt P37231); assay: TR-FRET dose response biochemical High Throughput Screening assay for agonists of the steroid receptor coactivator 1 (SRC-1) recruitment by the peroxisome proliferator-activated receptor gamma (PPAR gamma): non-selective agonists. [Related pubchem assays (depositor defined):AID1300, AID1808, AID504735, AID631]; format: protein assay
Peroxisome proliferator-activated receptor gamma/Nuclear receptor coactivator 1, sequence (P37231 whole entry): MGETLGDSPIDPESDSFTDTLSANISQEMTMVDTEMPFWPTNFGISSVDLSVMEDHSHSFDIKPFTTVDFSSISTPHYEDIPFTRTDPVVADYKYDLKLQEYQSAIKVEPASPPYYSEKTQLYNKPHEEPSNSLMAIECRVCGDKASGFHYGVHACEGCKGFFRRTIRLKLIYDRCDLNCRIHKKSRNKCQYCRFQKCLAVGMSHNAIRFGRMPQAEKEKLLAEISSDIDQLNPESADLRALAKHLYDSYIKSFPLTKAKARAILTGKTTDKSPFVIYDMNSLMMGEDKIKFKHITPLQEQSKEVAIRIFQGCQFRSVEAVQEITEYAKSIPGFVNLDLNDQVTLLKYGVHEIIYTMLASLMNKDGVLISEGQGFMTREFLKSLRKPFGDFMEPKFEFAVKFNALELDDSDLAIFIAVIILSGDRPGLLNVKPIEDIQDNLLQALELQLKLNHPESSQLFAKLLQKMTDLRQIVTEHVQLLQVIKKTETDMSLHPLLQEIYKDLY
Peroxisome proliferator-activated receptor gamma/Nuclear receptor coactivator 1, sequence (Q15788 whole entry, further chain): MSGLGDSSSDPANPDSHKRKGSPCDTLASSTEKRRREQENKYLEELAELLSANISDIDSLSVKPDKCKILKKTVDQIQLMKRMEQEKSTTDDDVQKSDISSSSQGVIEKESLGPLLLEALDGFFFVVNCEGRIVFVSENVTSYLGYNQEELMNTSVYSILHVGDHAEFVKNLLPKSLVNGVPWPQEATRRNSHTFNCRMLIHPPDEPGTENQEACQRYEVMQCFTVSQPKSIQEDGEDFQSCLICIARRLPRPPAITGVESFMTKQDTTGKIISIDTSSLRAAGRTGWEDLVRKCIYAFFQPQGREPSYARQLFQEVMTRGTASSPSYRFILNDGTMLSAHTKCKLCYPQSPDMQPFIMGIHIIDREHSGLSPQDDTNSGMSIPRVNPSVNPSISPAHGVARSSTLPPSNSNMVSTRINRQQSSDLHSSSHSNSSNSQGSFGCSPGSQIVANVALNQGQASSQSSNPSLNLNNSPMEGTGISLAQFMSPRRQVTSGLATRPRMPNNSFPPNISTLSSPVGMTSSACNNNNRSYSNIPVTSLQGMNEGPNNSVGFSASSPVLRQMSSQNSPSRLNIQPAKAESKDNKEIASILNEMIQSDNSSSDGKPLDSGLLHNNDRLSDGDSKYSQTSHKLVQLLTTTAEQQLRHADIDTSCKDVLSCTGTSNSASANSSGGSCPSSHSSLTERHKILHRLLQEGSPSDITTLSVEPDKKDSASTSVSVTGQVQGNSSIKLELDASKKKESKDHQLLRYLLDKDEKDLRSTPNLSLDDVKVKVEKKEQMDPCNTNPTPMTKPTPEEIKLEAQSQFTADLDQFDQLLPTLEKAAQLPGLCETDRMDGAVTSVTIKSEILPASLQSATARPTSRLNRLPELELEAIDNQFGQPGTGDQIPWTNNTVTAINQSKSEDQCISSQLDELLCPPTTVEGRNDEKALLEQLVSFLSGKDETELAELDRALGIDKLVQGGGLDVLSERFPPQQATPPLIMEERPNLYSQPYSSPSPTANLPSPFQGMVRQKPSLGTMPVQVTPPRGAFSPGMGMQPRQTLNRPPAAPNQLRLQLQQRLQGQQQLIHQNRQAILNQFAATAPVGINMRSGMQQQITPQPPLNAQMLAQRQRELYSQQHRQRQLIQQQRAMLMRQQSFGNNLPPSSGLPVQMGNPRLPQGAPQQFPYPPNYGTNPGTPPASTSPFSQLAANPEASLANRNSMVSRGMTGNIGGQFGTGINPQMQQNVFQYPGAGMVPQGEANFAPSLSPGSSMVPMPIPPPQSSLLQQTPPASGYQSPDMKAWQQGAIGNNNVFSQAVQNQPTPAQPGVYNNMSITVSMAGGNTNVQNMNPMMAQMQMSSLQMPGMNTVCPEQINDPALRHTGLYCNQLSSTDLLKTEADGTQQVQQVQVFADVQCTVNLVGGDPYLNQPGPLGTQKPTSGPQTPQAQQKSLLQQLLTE

[3] = biological target: Peroxisome proliferator-activated receptor gamma/Nuclear receptor coactivator 3 (Homo sapiens, UniProt P37231); assay: TR-FRET dose response biochemical High Throughput Screening assay for agonists of the steroid receptor coactivator 3 (SRC-3) recruitment by the peroxisome proliferator-activated receptor gamma (PPAR gamma): non-selective agonists. [Related pubchem assays: 1301 (Confirmation screen.), 1048 (Primary screen.)]; format: functional
[4] = biological target: Peroxisome proliferator-activated receptor gamma/Nuclear receptor coactivator 2 (Homo sapiens, UniProt P37231); assay: TR-FRET dose response biochemical High Throughput Screening assay for agonists of the steroid receptor coactivator 2 (SRC-2) recruitment by the peroxisome proliferator-activated receptor gamma (PPAR gamma): non-selective agonists. [Related pubchem assays: 1297, 1032 ]; format: functional
Peroxisome proliferator-activated receptor gamma/Nuclear receptor coactivator 2, sequence (P37231 whole entry): as the sequence (P37231 whole entry) above
Peroxisome proliferator-activated receptor gamma/Nuclear receptor coactivator 2, sequence (Q15596 whole entry, further chain): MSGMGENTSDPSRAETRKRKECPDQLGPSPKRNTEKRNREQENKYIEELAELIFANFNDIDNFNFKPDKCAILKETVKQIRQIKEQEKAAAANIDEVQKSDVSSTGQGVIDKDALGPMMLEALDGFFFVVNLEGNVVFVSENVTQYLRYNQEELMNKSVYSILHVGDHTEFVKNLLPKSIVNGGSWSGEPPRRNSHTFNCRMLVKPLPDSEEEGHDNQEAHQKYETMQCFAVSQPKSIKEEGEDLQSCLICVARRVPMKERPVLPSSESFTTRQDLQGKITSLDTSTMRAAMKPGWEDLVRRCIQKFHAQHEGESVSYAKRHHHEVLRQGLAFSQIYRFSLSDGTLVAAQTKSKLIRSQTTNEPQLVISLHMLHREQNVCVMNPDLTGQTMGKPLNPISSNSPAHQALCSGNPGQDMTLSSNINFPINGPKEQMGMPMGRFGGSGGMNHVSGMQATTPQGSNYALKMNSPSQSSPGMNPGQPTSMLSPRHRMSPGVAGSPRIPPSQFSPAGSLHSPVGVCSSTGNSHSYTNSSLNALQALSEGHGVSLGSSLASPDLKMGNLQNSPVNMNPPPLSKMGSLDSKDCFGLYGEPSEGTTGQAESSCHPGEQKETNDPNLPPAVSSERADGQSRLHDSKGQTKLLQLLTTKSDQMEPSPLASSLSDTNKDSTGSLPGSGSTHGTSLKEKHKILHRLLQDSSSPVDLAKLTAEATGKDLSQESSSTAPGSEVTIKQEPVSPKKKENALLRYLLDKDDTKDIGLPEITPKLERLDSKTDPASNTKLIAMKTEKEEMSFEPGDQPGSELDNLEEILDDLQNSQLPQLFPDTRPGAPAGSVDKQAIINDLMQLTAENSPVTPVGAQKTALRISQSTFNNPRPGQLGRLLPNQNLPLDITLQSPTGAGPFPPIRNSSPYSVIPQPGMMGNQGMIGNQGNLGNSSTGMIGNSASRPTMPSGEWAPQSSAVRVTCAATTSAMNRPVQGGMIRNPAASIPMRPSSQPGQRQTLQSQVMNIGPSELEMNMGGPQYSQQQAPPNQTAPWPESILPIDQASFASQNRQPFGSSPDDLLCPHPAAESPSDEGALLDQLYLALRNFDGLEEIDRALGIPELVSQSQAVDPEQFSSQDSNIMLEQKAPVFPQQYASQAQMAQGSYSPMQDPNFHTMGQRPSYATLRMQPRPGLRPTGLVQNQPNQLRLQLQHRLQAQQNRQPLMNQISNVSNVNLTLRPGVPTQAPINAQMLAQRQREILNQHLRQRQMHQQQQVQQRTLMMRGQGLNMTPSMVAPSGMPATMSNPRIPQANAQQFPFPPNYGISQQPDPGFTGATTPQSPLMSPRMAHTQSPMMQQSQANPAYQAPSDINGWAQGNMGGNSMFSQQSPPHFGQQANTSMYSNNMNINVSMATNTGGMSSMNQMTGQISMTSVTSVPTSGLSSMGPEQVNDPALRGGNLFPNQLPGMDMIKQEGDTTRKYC

[5] = test system: Vero; assay: cells; format: functional, cell-based; settings: Chlorocebus sabaeus
[6] = test system: Vero; assay: cells; format: functional; settings: Chlorocebus sabaeus
[7] = biological target: Cytochrome P450 3A4 (Homo sapiens, UniProt P08684);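 also: CYP3A4 tested as one member of a cytochrome P450 panel screen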
Cytochrome P450 3A4, sequence (P08684 whole entry): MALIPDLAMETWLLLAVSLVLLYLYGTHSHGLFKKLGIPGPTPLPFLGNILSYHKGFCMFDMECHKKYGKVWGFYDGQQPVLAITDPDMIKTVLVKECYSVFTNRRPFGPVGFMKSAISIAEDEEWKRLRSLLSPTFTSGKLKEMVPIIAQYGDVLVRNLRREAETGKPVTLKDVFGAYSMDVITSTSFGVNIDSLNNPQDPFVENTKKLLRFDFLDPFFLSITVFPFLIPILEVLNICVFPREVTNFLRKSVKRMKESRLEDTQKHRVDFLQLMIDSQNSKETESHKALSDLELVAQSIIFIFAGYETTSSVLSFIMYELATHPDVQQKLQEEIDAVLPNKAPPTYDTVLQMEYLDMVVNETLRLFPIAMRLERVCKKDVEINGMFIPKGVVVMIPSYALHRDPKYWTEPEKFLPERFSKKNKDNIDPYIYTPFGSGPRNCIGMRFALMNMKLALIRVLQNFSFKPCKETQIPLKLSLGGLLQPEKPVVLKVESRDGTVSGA

[8] = biological target: Glyceraldehyde-3-phosphate dehydrogenase (Homo sapiens, UniProt P04406)
Glyceraldehyde-3-phosphate dehydrogenase, sequence (P04406 whole entry): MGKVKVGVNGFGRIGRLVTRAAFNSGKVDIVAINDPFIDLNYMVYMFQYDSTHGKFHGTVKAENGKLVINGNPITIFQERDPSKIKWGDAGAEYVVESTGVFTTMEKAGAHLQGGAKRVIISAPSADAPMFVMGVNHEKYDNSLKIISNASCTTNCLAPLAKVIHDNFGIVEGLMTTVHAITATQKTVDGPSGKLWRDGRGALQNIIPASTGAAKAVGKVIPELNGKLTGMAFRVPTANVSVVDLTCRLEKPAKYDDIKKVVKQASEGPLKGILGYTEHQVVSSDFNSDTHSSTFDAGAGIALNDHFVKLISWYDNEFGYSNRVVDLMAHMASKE

[9] = biological target: T2, Alkaline phosphatase, tissue-nonspecific isozyme (Homo sapiens, UniProt P05186); assay: potency against alkaline phosphatase TNAP – biochemical, luminescent, dose response, SAR follow-up (AID 1056)
T2 sequence (P05186 whole entry): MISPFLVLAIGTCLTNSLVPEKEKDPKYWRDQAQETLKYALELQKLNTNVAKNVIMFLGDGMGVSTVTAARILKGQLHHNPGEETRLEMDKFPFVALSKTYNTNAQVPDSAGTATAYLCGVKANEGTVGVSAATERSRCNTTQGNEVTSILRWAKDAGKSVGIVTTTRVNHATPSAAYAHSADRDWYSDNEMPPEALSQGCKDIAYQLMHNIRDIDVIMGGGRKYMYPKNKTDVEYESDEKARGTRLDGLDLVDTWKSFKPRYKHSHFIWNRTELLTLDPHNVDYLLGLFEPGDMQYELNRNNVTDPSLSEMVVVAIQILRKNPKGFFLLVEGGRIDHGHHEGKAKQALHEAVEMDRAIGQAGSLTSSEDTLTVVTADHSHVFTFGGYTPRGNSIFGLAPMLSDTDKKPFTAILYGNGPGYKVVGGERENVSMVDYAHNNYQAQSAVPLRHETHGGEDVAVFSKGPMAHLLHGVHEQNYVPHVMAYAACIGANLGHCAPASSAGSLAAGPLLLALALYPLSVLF

[10] = biological target: T3, Aminopeptidase N (Plasmodium falciparum FcB1/Columbia, UniProt O96935); assay: malaria alanyl aminopeptidase activity blockers – biochemical, fluorogenic H-Leu-NHMec substrate, 1536-well (AID 1445); set-up: species or system Plasmodium falciparum 3D7, 3D7
T3 sequence (O96935 whole entry): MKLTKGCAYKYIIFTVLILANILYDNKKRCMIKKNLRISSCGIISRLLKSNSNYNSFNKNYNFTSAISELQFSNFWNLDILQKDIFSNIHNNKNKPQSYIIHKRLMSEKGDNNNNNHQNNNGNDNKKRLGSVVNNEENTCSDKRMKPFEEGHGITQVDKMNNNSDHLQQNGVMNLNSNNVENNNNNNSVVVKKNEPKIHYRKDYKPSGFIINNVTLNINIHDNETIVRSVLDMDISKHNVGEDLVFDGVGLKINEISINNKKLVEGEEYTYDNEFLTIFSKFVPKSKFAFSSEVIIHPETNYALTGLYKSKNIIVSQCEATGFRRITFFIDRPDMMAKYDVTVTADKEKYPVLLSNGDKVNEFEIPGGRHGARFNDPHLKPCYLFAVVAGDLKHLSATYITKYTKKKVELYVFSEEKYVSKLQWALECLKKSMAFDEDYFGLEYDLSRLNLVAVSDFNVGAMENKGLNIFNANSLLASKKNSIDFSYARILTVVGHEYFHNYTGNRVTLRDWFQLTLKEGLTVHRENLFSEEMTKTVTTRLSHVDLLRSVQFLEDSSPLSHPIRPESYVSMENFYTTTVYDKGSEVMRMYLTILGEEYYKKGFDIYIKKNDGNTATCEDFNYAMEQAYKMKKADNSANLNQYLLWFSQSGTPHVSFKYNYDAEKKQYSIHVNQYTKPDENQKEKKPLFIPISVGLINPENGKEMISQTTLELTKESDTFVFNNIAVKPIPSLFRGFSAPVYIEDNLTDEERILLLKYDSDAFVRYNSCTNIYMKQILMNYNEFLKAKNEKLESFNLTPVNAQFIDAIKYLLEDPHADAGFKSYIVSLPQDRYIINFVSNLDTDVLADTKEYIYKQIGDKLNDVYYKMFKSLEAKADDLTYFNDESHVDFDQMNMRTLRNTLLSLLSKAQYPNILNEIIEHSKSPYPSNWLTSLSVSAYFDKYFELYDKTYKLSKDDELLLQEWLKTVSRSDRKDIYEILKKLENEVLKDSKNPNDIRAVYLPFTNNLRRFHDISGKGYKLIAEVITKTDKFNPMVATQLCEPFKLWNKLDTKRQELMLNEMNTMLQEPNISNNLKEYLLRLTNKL

[11] = biological target: T4, Bcl-2-related protein A1 (Mus musculus, UniProt Q07440); format: functional;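 also: confirmatory dose–response counterscreen on Bfl-1, used to check hits from a UBC13 polyubiquitin inhibitor campaign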
T4 sequence (Q07440 whole entry): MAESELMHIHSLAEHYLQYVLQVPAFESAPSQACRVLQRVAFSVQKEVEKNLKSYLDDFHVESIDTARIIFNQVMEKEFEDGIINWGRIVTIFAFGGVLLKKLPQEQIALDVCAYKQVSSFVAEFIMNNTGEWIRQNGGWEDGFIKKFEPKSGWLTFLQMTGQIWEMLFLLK

[12] = biological target: T5, Ubiquitin-conjugating enzyme E2 N (Homo sapiens, UniProt P61088); format: functional
T5 sequence (P61088 whole entry): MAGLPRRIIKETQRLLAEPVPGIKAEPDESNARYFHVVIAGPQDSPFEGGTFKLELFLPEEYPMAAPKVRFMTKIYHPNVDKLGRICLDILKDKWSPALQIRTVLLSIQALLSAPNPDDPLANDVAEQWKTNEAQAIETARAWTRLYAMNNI

[13] = biological target: T5, Ubiquitin-conjugating enzyme E2 N; format: functional; remark: listed apart in the source
[14] = test system: Streptococcus sp. 'group A'; assay: Streptococcus pyogenes SK(-)GAS viability under kanamycin – luminescence, BacTiterGlo, confirmation, counter-screen for streptokinase expression inhibitor project, dose response (AID 1900); format: functional, organism-based
[15] = biological target: T6, Streptokinase A (Streptococcus pyogenes serotype M1, UniProt P10520); assay: viability-normalized secreted streptokinase activity reduction – plasminogen activation absorbance, OD405, dose response (AID 1914); format: functional, Streptococcus pyogenes M1 GAS;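 also: secreted streptokinase activity via plasminogen activation per viability signal from cell pellet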
T6 sequence (P10520 whole entry): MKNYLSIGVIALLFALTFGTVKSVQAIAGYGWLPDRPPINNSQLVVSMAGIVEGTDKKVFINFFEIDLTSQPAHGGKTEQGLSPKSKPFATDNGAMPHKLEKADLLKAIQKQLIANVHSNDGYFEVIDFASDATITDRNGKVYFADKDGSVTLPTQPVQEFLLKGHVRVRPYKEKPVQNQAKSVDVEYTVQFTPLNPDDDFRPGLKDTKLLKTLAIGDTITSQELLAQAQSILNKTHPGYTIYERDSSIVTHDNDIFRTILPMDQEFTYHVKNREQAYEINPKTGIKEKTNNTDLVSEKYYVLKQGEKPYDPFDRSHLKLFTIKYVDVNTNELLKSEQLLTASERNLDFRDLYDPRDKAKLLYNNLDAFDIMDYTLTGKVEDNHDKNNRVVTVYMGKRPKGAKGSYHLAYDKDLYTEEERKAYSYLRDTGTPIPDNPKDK

[16] = HPDE-C7 pancreatic duct cell viability loss – fluorescence, HTS (AID 430); format: functional, cell-based; settings: Homo sapiens
[17] = viability loss of HPDE-C7K cells – cell-based, fluorescence, HTS, primary screen (AID 431); format: functional; settings: Homo sapiens
[18] = test system: Streptococcus; assay: GAS UMAA2166 growth inhibition – luminescence, BacTiterGlo, counter-screen for streptokinase expression inhibitor project, dose response (AID 1915); format: functional, organism-based;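 also: potency for reduction of bacterial viability or growth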
[19] = biological target: T1, G-protein coupled receptor 55; assay: selective activators of receptor GPR55 – imaging, U2OS cells, beta-arrestin-GFP redistribution, primary screen (AID 1961); format: functional
[20] = biological target: Voltage-dependent T-type calcium channel subunit alpha-1H (Homo sapiens, UniProt O95180); format: functional;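 also: channel activity triggered by adding a high calcium stimulation buffer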
[21] = biological target: T7, Galanin receptor type 3 (Homo sapiens, UniProt O60755); assay: Fluorescence-based cell-based primary high throughput dose response assay to identify antagonists of the Galanin Receptor 3 (GalR3).; format: functional
T7 sequence (O60755 whole entry): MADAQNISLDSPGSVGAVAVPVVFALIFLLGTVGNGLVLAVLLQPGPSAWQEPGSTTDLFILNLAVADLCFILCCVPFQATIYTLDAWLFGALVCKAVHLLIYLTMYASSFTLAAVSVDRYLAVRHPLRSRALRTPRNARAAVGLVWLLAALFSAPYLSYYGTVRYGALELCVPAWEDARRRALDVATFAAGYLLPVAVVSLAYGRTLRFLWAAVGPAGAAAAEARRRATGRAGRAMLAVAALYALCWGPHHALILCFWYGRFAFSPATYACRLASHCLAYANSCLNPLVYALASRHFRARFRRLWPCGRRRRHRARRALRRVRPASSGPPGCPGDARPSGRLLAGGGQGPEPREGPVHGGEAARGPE

[22] = cells; format: functional, cell-based; settings: HEK-CNG
[23] = biological target: Cytochrome P450 2D6 (Homo sapiens, UniProt P10635);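 also: CYP2D6 member of a cytochrome P450 panel assay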

T1 sequence (Q9Y2T6 whole entry): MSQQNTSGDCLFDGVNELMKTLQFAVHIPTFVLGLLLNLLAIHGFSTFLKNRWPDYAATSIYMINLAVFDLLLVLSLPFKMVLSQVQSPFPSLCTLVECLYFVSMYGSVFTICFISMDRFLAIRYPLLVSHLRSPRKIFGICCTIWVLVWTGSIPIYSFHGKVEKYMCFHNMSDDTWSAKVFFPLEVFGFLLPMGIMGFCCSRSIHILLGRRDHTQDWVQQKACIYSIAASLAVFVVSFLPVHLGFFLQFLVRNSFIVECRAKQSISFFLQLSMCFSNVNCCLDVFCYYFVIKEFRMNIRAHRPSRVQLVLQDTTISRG

CN1C(=O)/C(=C/c2c[nH]nc2-c2ccccc2)SC1=S
IC50 [1]: 0.653 µM (active)

CC(C)Sc1oc(-c2ccco2)nc1S(=O)(=O)c1ccccc1
EC50 [2]: 6.48 µM (active)
EC50 [3]: > 79.4 µM (not active)
EC50 [4]: 9.32 µM (active)

COc1cccc(-c2ccc(NC(=O)C3CCCN(Cc4cnc(C)n4C)C3)cc2)c1 (centres undefined)
IC50 [5]: 20.3 µM (active)
CC50 [6]: > 25 µM (active)

O=c1c(Cl)c(N2CCN(S(=O)(=O)c3ccc(F)cc3)CC2)cnn1-c1cccc(Cl)c1
EC50 [2]: 9.63 µM (active)
EC50 [3]: 18.7 µM (not active)
EC50 [4]: 9.06 µM (active)
AC50 [7]: 20 µM (inconclusive)

ClCc1csc(-c2ccccc2Cl)n1
EC50 [2]: > 79.4 µM (inactive)
EC50 [3]: > 79.4 µM (not active)
EC50 [4]: > 79.4 µM (not active)

COc1cc(N(O)O)ccc1S(=O)(=O)Nc1cnc2ccccc2c1
IC50 [8]: > 100 µM (not active)
IC50 [9]: 0.74 µM (active)

CCCN(CCC)C(=O)CSc1nc2c(sc(=S)n2-c2ccc(OCC)cc2)c(=O)[nH]1
IC50 [10]: 68.3 µM (active)
IC50 [1]: 1.77 µM (active)

O=C(c1cccc(S(=O)(=O)N2CCCC2)c1)N1CCCC(C(F)(F)F)C1 (centres undefined)
IC50 [11]: > 20 µM (inactive)
IC50 [12]: 10.7 µM (active)
IC50 [13]: 8.31 µM (active)

CCCCCn1c(CN2CCN(c3cc(Cl)ccc3C)CC2)nc2c1c(=O)[nH]c(=O)n2C
EC50 [14]: 4.65 µM (active)
EC50 [15]: > 150 µM (not active)
EC50 [16]: 12.8 µM (active)
EC50 [17]: > 20 µM (not active)
EC50 [18]: 5.85 µM (active)
EC50 [19]: 4.7 µM (active)
EC50 [20]: 5.57 µM (active)
AC50 [7]: 2.24 µM (inconclusive)

O=C(NCC1CCN(Cc2ccc(Cl)cc2)CC1)C1CCCN(c2ncnc3c2nc2n3CCCCC2)C1 (centres undefined)
IC50 [11]: > 20 µM (inactive)
IC50 [12]: 7.67 µM (active)
IC50 [13]: 8.14 µM (active)
IC50 [21]: > 29.9 µM (inactive)
EC50 [22]: > 29.9 µM (inactive)

CCOC(=O)C(=Cc1ccc(-c2ccsc2C(=O)OC)o1)C(=O)OCC
EC50 [19]: 18.4 µM (inactive)
AC50 [23]: 39.8 µM (inconclusive)
AC50 [7]: 39.8 µM (inconclusive)

COc1ccc(OC)c(C(=O)Nc2cnc3ccccc3c2)c1
IC50 [8]: > 100 µM (not active)
IC50 [9]: > 100 µM (inactive)

CCc1ccc(OC)c(S(=O)(=O)Nc2cccnc2)c1
IC50 [8]: > 100 µM (not active)
IC50 [9]: 1.72 µM (active)

Cc1ccc(N(Cc2ccccc2)C(=O)CSC(C)C(=O)Nc2cc(C)on2)cc1 (centres undefined)
IC50 [5]: 15.6 µM (active)
CC50 [6]: 23.3 µM (active)

CC1CCN(Cc2c(C(=O)N/N=C/c3ccc(OC(C)C)cc3)nnn2-c2nonc2N)CC1
EC50 [19]: 3.41 µM (active)

CC(/C=N/NC(=O)c1nnn(-c2nonc2N)c1CN1CCCCC1)=C\c1ccccc1
EC50 [19]: < 0.5 µM (active)

Source: ChEMBL document CHEMBL1201862, “PubChem BioAssay data set” (2004)
